Data published in patent publication US6143910A, “Methods for preparation and use of 1α, 24(S) -dihydroxy vitamin D2” (priority 1998, dated 2000).
Read-outs that look alike come from different tables or passages of the source.

What was measured:
[1] = biological target: T1, vitamin D serum binding protein (DBP) (Rattus norvegicus, UniProt P04276); experiment: Affinity for vitamin D serum binding protein using vitamin D deficient rat serum
T1 sequence (P04276 17-476): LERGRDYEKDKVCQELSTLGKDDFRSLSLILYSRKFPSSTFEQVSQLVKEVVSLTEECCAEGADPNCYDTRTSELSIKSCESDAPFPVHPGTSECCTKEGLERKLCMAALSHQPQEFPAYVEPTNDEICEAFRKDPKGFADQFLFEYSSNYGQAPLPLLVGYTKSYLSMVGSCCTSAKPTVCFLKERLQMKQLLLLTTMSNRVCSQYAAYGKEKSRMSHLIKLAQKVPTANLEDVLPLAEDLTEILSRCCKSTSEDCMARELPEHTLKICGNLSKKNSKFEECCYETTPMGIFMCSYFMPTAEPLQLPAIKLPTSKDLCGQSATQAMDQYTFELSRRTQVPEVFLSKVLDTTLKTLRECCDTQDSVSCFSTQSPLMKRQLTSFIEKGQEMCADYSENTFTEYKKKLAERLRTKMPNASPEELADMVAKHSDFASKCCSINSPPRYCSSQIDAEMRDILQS
Excerpt: In addition, the weak binding by the DBP was indicative of more rapid clearance, allowing for low toxicity.

[2] = Dose ranging study in postmenopausal osteoporotic women; type: in vivo, human; conditions: oral 0.5 to 8.0 μg/day, escalated weekly over five weeks
Method: Twenty postmenopausal osteoporotic women are enrolled in an open label study.
On admission to the study, all patients receive instruction on selecting a daily diet containing 400 to 600 mg of calcium. Compliance to this diet is verified at weekly intervals by 24-hour food records and by interviews with each patient.
All patients complete a one-week baseline period, a five-week treatment period, and a one-week post-treatment observation period. During the treatment period, patients orally self-administer 1α,24(S)-dihydroxyvitamin D2 at an initial dose of 0.5 μg/day for the first week, and at successively higher doses of 1.0, 2.0, 4.0, and 8.0 μg/day in each of the following four weeks. All doses are administered before breakfast.
Blood and urine chemistries are monitored on a weekly basis throughout the study. Key blood chemistries include fasting serum levels of-calcium, phosphorus, osteocalcin, creatinine, and blood urea nitrogen. Key urine chemistries include 24-hour excretion of calcium, phosphorus, and creatinine.

[3] = Prophylaxis of postmenopausal bone loss in healthy postmenopausal women; type: in vivo, human; conditions: at or above 1.0 μg/day
Method: A clinical study is conducted with healthy postmenopausal women having ages between 55 and 60 years. The study involves up to 80 patients randomly divided into two treatment groups, and continues for 24 to 36 months. One treatment group receives a constant dosage of 1α,24(S)-dihydroxy vitamin D2 (u.i.d.; a dose level at or above 1.0 μg/day) and the other receives a matching placebo. The study is conducted as indicated in Example 2 above.

[4] = Dermatological testing, topical treatment of dermatitis; type: in vivo, human; conditions: ointment 10 μg per gram, twice daily, four to six weeks
Method: Compositions containing 1α,24(S)-dihydroxy vitamin D2 are evaluated for therapeutic efficacy of the composition in the topical treatment of dermatitis (contact and ectopic). The composition evaluated is an ointment containing 10 μg of 1α,24-dihydroxy vitamin D2 per gram of ointment in a petrolatum-almond oil base. […] The patients are treated in an out-patient clinic. They are instructed to use the preparation two times a day.
The ointment is as far as possible applied to a single lesion, or to an area of the disease. The ointment and its container are weighed before the treatment starts and returned with any unused contents for reweighing at the end of the treatment.
The area of the lesion treated is estimated and recorded, and the lesion is photographed as required, together with suitable "control" lesions. The latter are preferably lesions of similar size and stage of development, either in the vicinity of the treated lesion or symmetrically contralateral. Relevant details of the photographic procedure are recorded so as to be reproduced when the lesions are next photographed (distance, aperture, angle, background, etc.). The ointment is applied twice daily and preferably left uncovered. The "control" lesions are left untreated, but if this is not possible, the treatment used on them is noted. […]

[5] = test system: BCA-1 or ZR-75-1 (breast) and COL-1 (colon); experiment: Antiproliferative activity in human cancer cell lines, thymidine incorporation; type: cell-based; conditions: dose-response studies
Method: Dose-response studies are conducted with 1α,24(S)-(OH)2 D2 in a battery of human cancer cell lines. These cell lines include, but are not limited to, the following: BCA-1 or ZR-75-1 (breast) and COL-1 (colon), as described by Shieh, H. L. et al. Chem. Biol. Interact., vol. 81, pp. 35-55 (1982). In this study, appropriate solvents are used as negative controls.

Compound: C=C1/C(=C\C=C2/CCC[C@]3(C)[C@@H]([C@H](C)/C=C/[C@@](C)(O)C(C)C)CC[C@@H]23)C[C@@H](O)C[C@@H]1O [1α,24(S)-(OH)2 D2, 1α,24(S)-dihydroxy Vitamin D2]
- Binding affinity for the vitamin D serum binding protein (in words) [1]: relatively poor binding affinity
- Binding affinity for the vitamin D serum binding protein (in words) ([1]; listed as 1α,24(S)-dihydroxy vitamin D2): more weakly than does 1,25-(OH)2 D3
- 24-hour urinary calcium levels [2]: modest increases
- Routinely monitored serum parameters [2]: no effect on any routinely monitored serum parameters
- Serum osteocalcin levels [2]: increases in serum osteocalcin levels
- Urinary excretion of hydroxyproline [2]: nor does it increase urinary excretion of hydroxyproline
- Losses in total body calcium, radial or spinal bone densities versus baseline ([3]; 24 to 36 months): reduced losses
- Monitored safety parameters ([3]; long-term): confirm the safety
- Incidence of hypercalcemia [4]: insignificant incidence of hypercalcemia
- Lesion severity scores (erythema, scaling, thickness, rated 0 to 3) [4]: lower scores than the control lesions
- Antiproliferative activity, inhibition of thymidine incorporation [5]: potent (and reversible) antiproliferative activity
